{
  "source": "patent US10058092B2",
  "about": "“Apparatus and method for controlled release of botanical fumigant pesticides” (priority 2012, dated 2018)",
  "key": {"[1]": {"assay": "Volatilization monitoring by ultra-fast gas chromatograph inside empty moving box", "format": "physicochemical", "conditions": "from fumigant pesticide composition prototype, empty medium size box, 60-150 min and 23 h after closing", "protocol": "The volatilization of the prototype of the fumigant pesticide composition was monitored inside empty moving boxes. […] Ten mL of the fumigant pesticide composition prototype was placed inside a 40 mL GC vial.\nVolatile monitoring was performed at two steps. Step one started 60 minutes after the box was closed and volatile samples were collected every 5-minutes for 90 minutes. The second step started 23 hours after the box was closed and samples were collected every 5-minutes for 50 minutes."}, "[2]": {"assay": "Headspace volatilization of secondary metabolites by GCMS", "format": "physicochemical", "conditions": "share of total peak area", "protocol": "In this study, a liquid fumigant pesticide formulation was prepared as follows: • (1) Base formula: rosemary oil (5 ml) • (2) Enhancement formula: rosemary oil high quality (0.5 ml); clove oil (0.05 ml); peppermint oil (0.075 ml) • (3) Carrier solvent: isopropyl alcohol (6 ml); isopropyl myristate (0.06 ml). Blending: • 3. The required amounts of base formula ingredients were drawn from individual stocks of chemicals via a laboratory pipette and were transferred into a 40 ml GC glass vial (2.5 cm diameter by 10 cm length) with a silicon septa. The tall vial was used to minimize surface area of liquid that is exposed to the air during preparation. The chemicals were added quickly (less than 10 second to transfer each chemical) in order to minimize exposure to air. Following the same instruction, the enhancement formula was prepared and added to the same vial. • 4. The carrier solvent was then poured over the base formula and enhancement formula inside the vial. The vial was closed immediately after the solvent was added. The base formula, enhancement formula and carrier solvent were mixed using a lab shaker for 15 seconds.\nA sub-sample of the fumigant pesticide composition (0.5 ml) was placed inside a 1 ml GC vial. Three commercial samples of rosemary oil was also placed inside three separate 1 mL GC vials. Headspace volatilization of secondary metabolites from these four samples were compared using a gas chromatograph mass spectrometer (GCMS). The GCMS was programmed to only collect samples from the headspace above the liquid mixture of the chemicals in the vials. […] The GCMS was a Varian 3900 system with a Saturn 2100T ion trap mass-selective detector (Varian Inc., Walnut Creek, Calif.). The inventors used a WCOT fused silica 30 m Å˜0.25 mm i.d. column with a CP-Sil 8 CB low bleed MS coating (Varian Inc.), a 1 μL injection volume and pure helium as the carrier at 1.0 ml min-1. The temperature program used was 80° C. for 0.5 min, an increase of 8.0 $ Cmin-1 for 8.0 min, followed by an increase of 50° C. min-1 for 3.2 min. Cinnamic alcohol (Sigma, St Louis, Mo., USA) was used as an internal standard."}, "[3]": {"conditions": "Commercial rosemary oil sample one"}, "[4]": {"conditions": "Commercial rosemary oil sample three"}, "[5]": {"conditions": "Commercial rosemary oil sample two"}, "[6]": {"conditions": "Pesticide fumigant formula of the present invention (0.5 ml in 1 ml GC vial)"}},
  "note": "Where “and” joins values, the source holds several entries; their conditions need not be identical. Equal values may be shown once.",
  "data": [
    {"smiles": "CC12CCC(CC1)C(C)(C)O2", "note": "[1,8-Cineole]", "values": [
      {"measurement": "pattern of volatilization", "setting": "[1]", "result": "Unstable pattern with greater fluctuation at the end of trial"},
      {"measurement": "% of secondary metabolite in headspace", "setting": "[2]; [3]", "result": 57.05, "unit": "%"},
      {"measurement": "% of secondary metabolite in headspace", "setting": "[2]; [4]", "result": 36.95, "unit": "%"},
      {"measurement": "% of secondary metabolite in headspace", "setting": "[2]; [5]", "result": 21.53, "unit": "%"},
      {"measurement": "% of secondary metabolite in headspace", "setting": "[2]; [6]", "result": 46.78, "unit": "%"}
    ]},
    {"smiles": "CC1=CCC2C(C1)C2(C)C", "note": "(centres unmarked) [3-Carene]", "values": [
      {"measurement": "% of secondary metabolite in headspace", "setting": "[2]; [3]", "result": 1.88, "unit": "%"}
    ]},
    {"smiles": "CC1(C)C2CCC1(C)C(O)C2", "note": "(centres unmarked) [Borneol]", "values": [
      {"measurement": "% of secondary metabolite in headspace", "setting": "[2]; [3]", "result": 4.06, "unit": "%"},
      {"measurement": "% of secondary metabolite in headspace", "setting": "[2]; [4]", "result": 1.68, "unit": "%"},
      {"measurement": "% of secondary metabolite in headspace", "setting": "[2]; [5]", "result": 3.60, "unit": "%"}
    ]},
    {"smiles": "CC(=O)OC1CC2CCC1(C)C2(C)C", "note": "(centres unmarked) [Bornyl Acetate]", "values": [
      {"measurement": "% of secondary metabolite in headspace", "setting": "[2]; [3]", "result": 2.70, "unit": "%"},
      {"measurement": "% of secondary metabolite in headspace", "setting": "[2]; [4]", "result": 2.54, "unit": "%"}
    ]},
    {"smiles": "C=C1C2CCC(C2)C1(C)C", "note": "(centres unmarked) [Camphene]", "values": [
      {"measurement": "pattern of volatilization", "setting": "[1]", "result": "Fluctuation pattern with increasing levels at the tail end"},
      {"measurement": "% of secondary metabolite in headspace", "setting": "[2]; [3]", "result": 4.26, "unit": "%"},
      {"measurement": "% of secondary metabolite in headspace", "setting": "[2]; [4]", "result": "10.06% and 4.72%"},
      {"measurement": "% of secondary metabolite in headspace", "setting": "[2]; [5]", "result": 13.04, "unit": "%"},
      {"measurement": "% of secondary metabolite in headspace", "setting": "[2]; [6]", "result": 9.98, "unit": "%"}
    ]},
    {"smiles": "CC12CCC(CC1=O)C2(C)C", "note": "(centres unmarked) [Camphor]", "values": [
      {"measurement": "pattern of volatilization", "setting": "[1]", "result": "Fluctuation pattern with increasing levels at the tail end"},
      {"measurement": "% of secondary metabolite in headspace", "setting": "[2]; [3]", "result": 11.89, "unit": "%"},
      {"measurement": "% of secondary metabolite in headspace", "setting": "[2]; [4]", "result": 18.60, "unit": "%"},
      {"measurement": "% of secondary metabolite in headspace", "setting": "[2]; [5]", "result": 25.50, "unit": "%"},
      {"measurement": "% of secondary metabolite in headspace", "setting": "[2]; [6]", "result": 23.30, "unit": "%"}
    ]},
    {"smiles": "C=C(C)[C@H]1CC=C(C)CC1", "note": "[D-Limonene]", "values": [
      {"measurement": "pattern of volatilization", "setting": "[1]", "result": "Fluctuation pattern with increasing levels at the tail end"},
      {"measurement": "% of secondary metabolite in headspace", "setting": "[2]; [5]", "result": 4.67, "unit": "%"}
    ]},
    {"smiles": "C=CCc1ccc(O)c(OC)c1", "note": "[Eugenol]", "values": [
      {"measurement": "pattern of volatilization", "setting": "[1]", "result": "Unstable pattern with greater fluctuation at the end of trial"}
    ]},
    {"smiles": "CC1(C)[C@@H]2CC[C@@]1(C)[C@H](O)C2", "note": "[Isoborneol]", "values": [
      {"measurement": "% of secondary metabolite in headspace", "setting": "[2]; [3]", "result": 1.74, "unit": "%"},
      {"measurement": "% of secondary metabolite in headspace", "setting": "[2]; [5]", "result": 2.28, "unit": "%"}
    ]},
    {"smiles": "CC(=O)OC(C)C", "note": "[Isopropyl acetate]", "values": [
      {"measurement": "% of secondary metabolite in headspace", "setting": "[2]; [5]", "result": 3.25, "unit": "%"}
    ]},
    {"smiles": "CC1=CC[C@@H](C(C)(C)O)CC1", "note": "[a-Terpineol]", "values": [
      {"measurement": "% of secondary metabolite in headspace", "setting": "[2]; [4]", "result": 2.48, "unit": "%"}
    ]},
    {"smiles": "CC1=CCC2CC1C2(C)C", "note": "(centres unmarked) [a-pinene]", "values": [
      {"measurement": "pattern of volatilization", "setting": "[1]", "result": "Complete inhibition pattern"},
      {"measurement": "% of secondary metabolite in headspace", "setting": "[2]; [3]", "result": 6.53, "unit": "%"},
      {"measurement": "% of secondary metabolite in headspace", "setting": "[2]; [4]", "result": 14.73, "unit": "%"},
      {"measurement": "% of secondary metabolite in headspace", "setting": "[2]; [5]", "result": 18.15, "unit": "%"},
      {"measurement": "% of secondary metabolite in headspace", "setting": "[2]; [6]", "result": 14.58, "unit": "%"}
    ]},
    {"smiles": "C=C1CCC2CC1C2(C)C", "note": "(centres unmarked) [b-pinene]", "values": [
      {"measurement": "pattern of volatilization", "setting": "[1]", "result": "Complete inhibition pattern"},
      {"measurement": "% of secondary metabolite in headspace", "setting": "[2]; [3]", "result": 8.00, "unit": "%"},
      {"measurement": "% of secondary metabolite in headspace", "setting": "[2]; [4]", "result": 6.22, "unit": "%"},
      {"measurement": "% of secondary metabolite in headspace", "setting": "[2]; [5]", "result": 5.43, "unit": "%"},
      {"measurement": "% of secondary metabolite in headspace", "setting": "[2]; [6]", "result": 5.35, "unit": "%"}
    ]},
    {"smiles": "CC(C)=CCC/C(C)=C/CO", "note": "[geraniol]", "values": [
      {"measurement": "pattern of volatilization", "setting": "[1]", "result": "Steady compounds"}
    ]},
    {"smiles": "C=CC(C)(O)CCC=C(C)C", "note": "(centres unmarked) [linalool]", "values": [
      {"measurement": "pattern of volatilization", "setting": "[1]", "result": "Steady compounds"}
    ]},
    {"smiles": "Cc1ccc(C(C)C)cc1", "note": "[p-Cymene]", "values": [
      {"measurement": "pattern of volatilization", "setting": "[1]", "result": "Fluctuation pattern with increasing levels at the tail end"},
      {"measurement": "% of secondary metabolite in headspace", "setting": "[2]; [3]", "result": 1.89, "unit": "%"},
      {"measurement": "% of secondary metabolite in headspace", "setting": "[2]; [4]", "result": 2.01, "unit": "%"},
      {"measurement": "% of secondary metabolite in headspace", "setting": "[2]; [5]", "result": 2.56, "unit": "%"}
    ]}
  ]
}
